Literature values as cited in article PMC9516332 (Frontiers in Oncology, 2022).
Like-named read-outs stand apart in the source and are kept apart here.

Tests used:
Conditions in all cases: cited from earlier work
[1] = target: panel of 255 wild-type kinases (Homo sapiens, UniProt Q16644)
[2] = target: T1, panel of 255 wild-type kinases (Homo sapiens, UniProt Q9UL54)
T1 sequence (Q9UL54 1-1235): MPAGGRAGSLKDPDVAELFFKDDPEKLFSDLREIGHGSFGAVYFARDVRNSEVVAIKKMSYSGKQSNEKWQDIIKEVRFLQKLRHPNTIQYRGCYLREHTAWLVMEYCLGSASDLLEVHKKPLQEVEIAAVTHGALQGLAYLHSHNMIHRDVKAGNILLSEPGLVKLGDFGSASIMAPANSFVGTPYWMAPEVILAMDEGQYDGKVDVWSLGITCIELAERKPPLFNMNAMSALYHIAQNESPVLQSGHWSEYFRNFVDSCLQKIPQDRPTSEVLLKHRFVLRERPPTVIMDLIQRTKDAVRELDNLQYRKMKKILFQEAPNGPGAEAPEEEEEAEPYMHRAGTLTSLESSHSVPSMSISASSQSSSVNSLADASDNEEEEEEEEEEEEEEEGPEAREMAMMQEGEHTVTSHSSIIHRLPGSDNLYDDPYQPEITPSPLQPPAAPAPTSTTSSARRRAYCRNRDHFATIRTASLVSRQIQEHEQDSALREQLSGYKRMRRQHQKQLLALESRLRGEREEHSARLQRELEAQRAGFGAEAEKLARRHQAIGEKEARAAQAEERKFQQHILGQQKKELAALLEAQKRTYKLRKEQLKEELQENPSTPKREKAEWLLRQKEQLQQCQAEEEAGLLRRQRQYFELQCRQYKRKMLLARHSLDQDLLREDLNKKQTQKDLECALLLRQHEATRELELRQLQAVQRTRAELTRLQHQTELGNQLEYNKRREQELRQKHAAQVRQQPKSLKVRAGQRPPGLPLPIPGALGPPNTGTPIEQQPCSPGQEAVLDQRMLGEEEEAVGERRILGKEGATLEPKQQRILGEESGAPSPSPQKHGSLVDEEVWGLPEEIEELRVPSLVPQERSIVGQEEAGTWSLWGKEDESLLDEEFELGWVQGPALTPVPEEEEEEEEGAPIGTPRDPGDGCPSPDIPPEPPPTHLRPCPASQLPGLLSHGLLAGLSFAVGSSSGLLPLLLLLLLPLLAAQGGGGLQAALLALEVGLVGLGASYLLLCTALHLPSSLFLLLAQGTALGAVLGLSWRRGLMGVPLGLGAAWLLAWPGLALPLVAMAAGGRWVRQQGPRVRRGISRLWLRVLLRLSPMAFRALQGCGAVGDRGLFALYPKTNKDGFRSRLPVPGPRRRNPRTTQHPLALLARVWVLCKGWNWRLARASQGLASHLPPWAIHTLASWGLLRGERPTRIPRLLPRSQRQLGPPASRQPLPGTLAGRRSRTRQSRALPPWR

[3] = target: T2, panel of 255 wild-type kinases (Homo sapiens, UniProt P54753)
T2 sequence (P54753 34-998): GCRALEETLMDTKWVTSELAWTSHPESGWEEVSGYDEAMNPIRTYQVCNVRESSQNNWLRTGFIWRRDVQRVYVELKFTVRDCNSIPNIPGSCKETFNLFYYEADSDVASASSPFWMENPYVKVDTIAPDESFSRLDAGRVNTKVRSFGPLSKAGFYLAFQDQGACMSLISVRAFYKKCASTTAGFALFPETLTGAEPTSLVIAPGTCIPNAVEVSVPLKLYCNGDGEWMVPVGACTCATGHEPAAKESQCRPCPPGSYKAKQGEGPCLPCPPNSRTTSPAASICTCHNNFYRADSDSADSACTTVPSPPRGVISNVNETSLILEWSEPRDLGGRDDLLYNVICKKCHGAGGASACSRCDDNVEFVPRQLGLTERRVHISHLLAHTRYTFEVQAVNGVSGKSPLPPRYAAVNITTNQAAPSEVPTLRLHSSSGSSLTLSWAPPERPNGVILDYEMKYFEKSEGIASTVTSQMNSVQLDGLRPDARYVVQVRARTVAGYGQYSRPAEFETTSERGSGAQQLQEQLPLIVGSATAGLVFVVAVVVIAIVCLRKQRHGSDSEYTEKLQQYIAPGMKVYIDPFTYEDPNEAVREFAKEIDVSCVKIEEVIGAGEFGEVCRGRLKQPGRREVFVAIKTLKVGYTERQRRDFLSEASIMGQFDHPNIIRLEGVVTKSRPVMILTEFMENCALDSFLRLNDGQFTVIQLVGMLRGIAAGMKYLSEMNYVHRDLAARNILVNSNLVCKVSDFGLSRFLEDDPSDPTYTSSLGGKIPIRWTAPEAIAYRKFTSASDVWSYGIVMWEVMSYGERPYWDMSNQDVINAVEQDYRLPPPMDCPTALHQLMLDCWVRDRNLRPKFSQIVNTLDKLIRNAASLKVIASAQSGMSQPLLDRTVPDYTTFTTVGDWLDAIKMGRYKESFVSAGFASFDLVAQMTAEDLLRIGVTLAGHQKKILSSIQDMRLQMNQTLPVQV

[4] = target: T3, panel of 255 wild-type kinases (Homo sapiens, UniProt Q9UQB9)
T3 sequence (Q9UQB9 1-309): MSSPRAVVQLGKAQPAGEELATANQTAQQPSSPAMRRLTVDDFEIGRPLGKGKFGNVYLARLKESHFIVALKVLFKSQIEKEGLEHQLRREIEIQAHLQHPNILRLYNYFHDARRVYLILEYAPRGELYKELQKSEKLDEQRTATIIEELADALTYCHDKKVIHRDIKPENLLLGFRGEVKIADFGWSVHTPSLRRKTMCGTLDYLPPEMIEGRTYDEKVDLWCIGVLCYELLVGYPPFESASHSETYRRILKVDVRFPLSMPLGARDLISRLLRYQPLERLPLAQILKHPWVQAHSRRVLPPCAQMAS

[5] = target: panel of 255 wild-type kinases (Homo sapiens, UniProt Q9P1W9)
[6] = target: panel of 255 wild-type kinases (Homo sapiens, UniProt Q8N568)
[7] = MAPKAPK3, 1 µmol/L single concentration, ref DOI: 10.1158/1535-7163.MCT-18-0877
[8] = kinase TAOK2, 1 µmol/L single concentration, ref DOI: 10.1158/1535-7163.MCT-18-0877
[9] = kinase EPHB3, 1 µmol/L single concentration, ref DOI: 10.1158/1535-7163.MCT-18-0877
[10] = AurC kinase assay, 1 µmol/L single concentration, ref DOI: 10.1158/1535-7163.MCT-18-0877
[11] = kinase PIM2, 1 µmol/L single concentration, ref DOI: 10.1158/1535-7163.MCT-18-0877
[12] = kinase DCAMKL2, 1 µmol/L single concentration, ref DOI: 10.1158/1535-7163.MCT-18-0877
[13] = MAPKAPK3, 1 µmol/L single concentration, ref DOI: 10.1371/journal.pone.0092146
[14] = kinase TAOK2, 1 µmol/L single concentration, ref DOI: 10.1371/journal.pone.0092146
[15] = kinase EPHB3, 1 µmol/L single concentration, ref DOI: 10.1371/journal.pone.0092146
[16] = AurC kinase assay, 1 µmol/L single concentration, ref DOI: 10.1371/journal.pone.0092146
[17] = kinase PIM2, 1 µmol/L single concentration, ref DOI: 10.1371/journal.pone.0092146
[18] = kinase DCAMKL2, 1 µmol/L single concentration, ref DOI: 10.1371/journal.pone.0092146

Row | Compound | %-inhibition, MAPKAPK3 [1, 7] [%] | %-inhibition at 1 µmol/L, TAOK2 [2, 8] [%] | %-inhibition at 1 µmol/L, EPHB3 [3, 9] [%] | %-inhibition AurC [4, 10] [%] | %-inhibition at 1 µmol/L, PIM2 [5, 11] [%] | %-inhibition at 1 µmol/L, DCAMKL2 [6, 12] [%] | %-inhibition, MAPKAPK3 [1, 13] [%] | %-inhibition at 1 µmol/L, TAOK2 [2, 14] [%] | %-inhibition at 1 µmol/L, EPHB3 [3, 15] [%] | %-inhibition AurC [4, 16] [%] | %-inhibition at 1 µmol/L, PIM2 [5, 17] [%] | %-inhibition at 1 µmol/L, DCAMKL2 [6, 18] [%] | also measured
1 | CC#CC(=O)N1CCC[C@H]1c1nc(-c2ccc(C(=O)Nc3ccccn3)cc2)c2c(N)nccn12 [acalabrutinib] | -11 | 5.31 | 1.64 | 7 | -17 | 4.63 |  |  |  |  |  |  | 
2 | CCc1cc2c(cc1N1CCC(N3CCOCC3)CC1)C(C)(C)c1[nH]c3cc(C#N)ccc3c1C2=O [alectinib] | -0.429 | 5.52 | 2 | 2.65 | 2.36 | 7 |  |  |  |  |  |  | 
3 | COc1cc(N2CCC(N3CCN(C)CC3)CC2)ccc1Nc1ncc(Cl)c(Nc2ccccc2P(C)(C)=O)n1 [brigatinib] |  |  |  |  |  |  |  |  |  |  |  |  | %-inhibition, MAPKAPK3 [1]: -0.903%; %-inhibition at 1 µmol/L, TAOK2 [2]: 16%; %-inhibition at 1 µmol/L, EPHB3 [3]: 0.727%; %-inhibition AurC [4]: 44%; %-inhibition at 1 µmol/L, PIM2 [5]: -11%; %-inhibition at 1 µmol/L, DCAMKL2 [6]: 52%
4 | Cc1cc(Nc2ncc(Cl)c(Nc3ccccc3S(=O)(=O)C(C)C)n2)c(OC(C)C)cc1C1CCNCC1 [ceritinib] | -10 | 7 | -1 | 3.47 | -8 | 85 |  |  |  |  |  |  | 
5 | O=C(c1ccc(F)c(F)c1Nc1ccc(I)cc1F)N1CC(O)([C@@H]2CCCCN2)C1 [cobimetinib] | 1.42 | 5.42 | 0.898 | -2.68 | -4.45 | -9 |  |  |  |  |  |  | 
6 | C[C@@H](Oc1cc(-c2cnn(C3CCNCC3)c2)cnc1N)c1c(Cl)ccc(F)c1Cl [crizotinib] |  |  |  |  |  |  | -13 | 33 | 5 | 87 | -5.28 | 49 | 
7 | CC(C)(C)c1nc(-c2cccc(NS(=O)(=O)c3c(F)cccc3F)c2F)c(-c2ccnc(N)n2)s1 [dabrafenib] |  |  |  |  |  |  | -11 | 34 | 3 | 23 | 0.238 | 19 | 
8 | C=CC(=O)N1CCC[C@@H](n2nc(-c3ccc(Oc4ccccc4)cc3)c3c(N)ncnc32)C1 [ibrutinib] | -6.5 | 5 | 3 | 7 | -5 | -9 |  |  |  |  |  |  | 
9 | CO[C@@H]1[C@H](N(C)C(=O)c2ccccc2)C[C@H]2O[C@]1(C)n1c3ccccc3c3c4c(c5c6ccccc6n2c5c31)C(=O)NC4 [midostaurin] | -7 | 9 | 1.53 | 100 | -9 | 8 |  |  |  |  |  |  | 
10 | C=CC(=O)Nc1cc(Nc2nccc(-c3cn(C)c4ccccc34)n2)c(OC)cc1N(C)CCN(C)C [osimertinib] | -9 | 7 | -0.0464 | 2.33 | -5.45 | -7 |  |  |  |  |  |  | 
11 | CC(=O)Nc1cccc(-n2c(=O)n(C3CC3)c(=O)c3c(Nc4ccc(I)cc4F)n(C)c(=O)c(C)c32)c1 [trametinib] |  |  |  |  |  |  | -9 | -2.59 | -5.47 | 1 | -4 | -2.4 | 
12 | CCCS(=O)(=O)Nc1ccc(F)c(C(=O)c2c[nH]c3ncc(-c4ccc(Cl)cc4)cc23)c1F [vemurafenib] |  |  |  |  |  |  | 12 | 5.35 | 2 | 13 | -2 | -3.52 | 
